This note sets out measurements from ChEMBL document CHEMBL3817791, “Discovery of 4-(4-aminopyrazolo[1,5-a][1,3,5]triazin-8-yl)benzamides as novel, highly potent and selective, orally bioavailable inhibitors of Tyrosine Threonine Kinase, TTK” (Bioorg Med Chem Lett, 2016).

Data set [1] deals with T1, Dual specificity protein kinase TTK (Homo sapiens, UniProt P33981).
T1 sequence (P33981 whole entry): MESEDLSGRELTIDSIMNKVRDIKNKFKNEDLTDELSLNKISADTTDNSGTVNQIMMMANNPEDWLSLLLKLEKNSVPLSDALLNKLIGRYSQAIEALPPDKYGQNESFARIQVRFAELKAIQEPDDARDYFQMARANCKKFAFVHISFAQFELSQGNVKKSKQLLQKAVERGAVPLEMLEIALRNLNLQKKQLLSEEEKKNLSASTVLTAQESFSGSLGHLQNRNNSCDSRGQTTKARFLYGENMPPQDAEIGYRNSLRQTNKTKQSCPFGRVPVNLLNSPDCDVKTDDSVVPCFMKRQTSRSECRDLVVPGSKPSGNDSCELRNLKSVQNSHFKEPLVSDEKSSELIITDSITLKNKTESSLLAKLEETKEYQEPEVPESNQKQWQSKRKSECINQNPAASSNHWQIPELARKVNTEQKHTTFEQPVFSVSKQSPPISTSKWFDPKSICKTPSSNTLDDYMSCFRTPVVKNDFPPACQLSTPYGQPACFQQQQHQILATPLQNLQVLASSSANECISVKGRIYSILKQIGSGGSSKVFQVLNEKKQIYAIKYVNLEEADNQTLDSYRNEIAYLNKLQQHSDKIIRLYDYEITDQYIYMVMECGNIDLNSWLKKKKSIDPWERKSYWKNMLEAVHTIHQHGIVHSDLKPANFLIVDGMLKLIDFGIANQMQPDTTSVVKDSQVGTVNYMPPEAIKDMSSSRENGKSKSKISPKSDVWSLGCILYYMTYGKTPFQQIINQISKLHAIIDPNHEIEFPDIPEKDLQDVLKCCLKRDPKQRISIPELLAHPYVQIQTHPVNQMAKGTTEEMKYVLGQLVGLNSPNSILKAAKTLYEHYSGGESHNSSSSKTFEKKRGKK
Nature of the data set: Inhibition of TTK (unknown origin).

The next data set concerns MDA-MB-231. Nature of the data set: Antiproliferative activity against human MDA-MB-231 cells. The class given is functional.
Data set [2] can be described thus: Antiproliferative activity against human HCT116 cells. The class given is functional. Conditions: HCT-116.
Data set [3] can be described thus: Antiproliferative activity against human OVCAR3 cells. The format is functional. Conditions: OVCAR-3.
For the next data set, the system named is HT-29. Briefly: Antiproliferative activity against human HT-29 cells. The class given is functional.
The nature of data set [4]: Antiproliferative activity against human PA1 cells. The format is functional. The note with it: PA-1.
The next data set deals with MDA-MB-468. Nature of the data set: Antiproliferative activity against human MDA-MB-468 cells. The class given is functional.
A further data set has as its target Cytochrome P450 3A4 (Homo sapiens, UniProt P08684). Nature of the data set: Inhibition of CYP3A4 (unknown origin). The format is ADME.
Data set [5] can be described thus: Half life in mouse microsomes. The class given is ADME, Microsome.
A short description of data set [6]: Half life in rat microsomes. The class given is ADME, Microsome.
Data set [7] in a line: Half life in human microsomes. The format is ADME, Microsome.
Data set [8] is described as follows: Cmax in mouse at 10 mg/kg, po. Conditions: in vivo. Further details: dose 10 mg/kg, route oral. The class given is ADME, organism-based.
Data set [9] can be described thus: AUC in mouse at 10 mg/kg, po. The format is ADME, organism-based. The note with it: in vivo.
Data set [10] has as its target Rho-associated protein kinase 2 (Homo sapiens) (UniProt O75116). Briefly: Inhibition of recombinant human N-terminal His6-tagged ROCK2 (11 to 552 residues) expressed in baculovirus infected Sf21 cells at 1 uM by radiometric assay relative to control.
Substrate in data set [11]: Cc1cc(-c2cnn3c(NCC4CCOCC4)nc(Oc4ccccc4)nc23)ccc1C(=O)NC1CC1
Conditions: Homo sapiens.
Description: Inhibition of TTK (unknown origin) assessed as substrate Km(app) at 1.5 nM by double reciprocal plot analysis (Rvb = 8.4 uM)

Substrate in data set [12]: Cc1cc(-c2cnn3c(NCC4CCOCC4)nc(Oc4ccccc4)nc23)ccc1C(=O)NC1CC1
Description: Inhibition of TTK (unknown origin) assessed as substrate Km(app) at 4.5 nM by double reciprocal plot analysis (Rvb = 8.4 uM)
The note with it: Homo sapiens. The source holds these as a separate data set.

Substrate in data set [13]: Cc1cc(-c2cnn3c(NCC4CCOCC4)nc(Oc4ccccc4)nc23)ccc1C(=O)NC1CC1
Description: Inhibition of TTK (unknown origin) assessed as substrate Km(app) at 7.5 nM by double reciprocal plot analysis (Rvb = 8.4 uM)
The note with it: Homo sapiens. The source holds these as a separate data set.

Chain of Cytochrome P450 3A4 (P08684 whole entry): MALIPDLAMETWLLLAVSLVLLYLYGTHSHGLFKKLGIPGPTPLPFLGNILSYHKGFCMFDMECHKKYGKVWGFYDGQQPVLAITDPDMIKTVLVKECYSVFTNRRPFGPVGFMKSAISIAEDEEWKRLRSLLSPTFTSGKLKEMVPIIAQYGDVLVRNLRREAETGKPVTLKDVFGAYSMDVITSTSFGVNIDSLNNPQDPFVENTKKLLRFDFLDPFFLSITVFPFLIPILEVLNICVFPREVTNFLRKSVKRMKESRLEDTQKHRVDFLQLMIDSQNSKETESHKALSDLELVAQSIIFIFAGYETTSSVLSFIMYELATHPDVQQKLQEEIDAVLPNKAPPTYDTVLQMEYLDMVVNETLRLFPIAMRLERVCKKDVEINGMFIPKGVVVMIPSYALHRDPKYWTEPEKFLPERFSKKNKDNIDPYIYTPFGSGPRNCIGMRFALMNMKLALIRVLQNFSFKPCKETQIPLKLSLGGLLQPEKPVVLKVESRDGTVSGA
Chain of Rho-associated protein kinase 2 (Homo sapiens) (O75116 whole entry, looked up, the tested form may be a part): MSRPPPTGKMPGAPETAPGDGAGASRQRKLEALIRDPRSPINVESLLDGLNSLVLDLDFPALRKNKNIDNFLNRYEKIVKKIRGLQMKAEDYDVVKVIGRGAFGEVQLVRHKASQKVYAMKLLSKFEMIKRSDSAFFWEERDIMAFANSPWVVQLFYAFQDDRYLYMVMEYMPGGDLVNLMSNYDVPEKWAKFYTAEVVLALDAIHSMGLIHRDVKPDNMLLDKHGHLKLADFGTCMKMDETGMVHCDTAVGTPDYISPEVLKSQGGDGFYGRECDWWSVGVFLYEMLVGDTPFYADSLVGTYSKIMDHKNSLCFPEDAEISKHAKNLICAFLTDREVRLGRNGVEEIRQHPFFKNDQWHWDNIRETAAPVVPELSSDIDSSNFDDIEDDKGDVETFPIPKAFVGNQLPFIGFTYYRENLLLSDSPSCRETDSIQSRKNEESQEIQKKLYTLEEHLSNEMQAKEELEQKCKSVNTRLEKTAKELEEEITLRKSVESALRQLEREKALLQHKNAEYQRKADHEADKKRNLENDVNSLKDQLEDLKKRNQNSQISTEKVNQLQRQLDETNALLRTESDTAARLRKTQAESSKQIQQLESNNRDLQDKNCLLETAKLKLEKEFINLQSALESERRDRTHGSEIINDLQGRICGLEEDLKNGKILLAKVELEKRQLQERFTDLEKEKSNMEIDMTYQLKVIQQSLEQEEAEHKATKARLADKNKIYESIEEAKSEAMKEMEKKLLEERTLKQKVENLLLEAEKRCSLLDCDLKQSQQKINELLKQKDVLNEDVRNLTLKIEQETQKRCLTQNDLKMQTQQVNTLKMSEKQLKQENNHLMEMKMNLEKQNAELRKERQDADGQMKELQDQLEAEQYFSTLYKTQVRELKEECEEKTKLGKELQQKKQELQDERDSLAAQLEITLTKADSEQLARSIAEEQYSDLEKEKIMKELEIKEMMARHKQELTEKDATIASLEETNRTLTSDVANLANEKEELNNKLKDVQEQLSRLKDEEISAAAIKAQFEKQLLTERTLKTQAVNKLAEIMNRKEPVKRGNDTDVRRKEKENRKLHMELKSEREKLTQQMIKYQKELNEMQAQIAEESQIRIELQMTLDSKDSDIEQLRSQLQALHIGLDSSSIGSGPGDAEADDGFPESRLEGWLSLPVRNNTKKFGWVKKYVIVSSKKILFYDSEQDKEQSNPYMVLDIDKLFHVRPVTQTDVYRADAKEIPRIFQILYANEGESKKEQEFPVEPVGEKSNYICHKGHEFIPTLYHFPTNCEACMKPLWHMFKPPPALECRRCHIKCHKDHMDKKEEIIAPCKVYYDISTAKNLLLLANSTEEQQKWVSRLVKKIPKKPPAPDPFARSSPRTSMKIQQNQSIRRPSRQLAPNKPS

`Cc1cc(-c2cnn3c(NCCN4CCOCC4)nc(Oc4cccc(F)c4F)nc23)ccc1C(=O)NC1CC1`: in [1], the IC50 (in general, the concentration that inhibits the measured activity by half) stood at 2.2 nM. Moreover, the concentration for 50% growth inhibition (GI50) – broadly, the concentration that inhibits growth by half – in the data set with MDA-MB-231 was found to be 40 nM; in data set [2], 14 nM; in data set [3], 170 nM; with HT-29, 21 nM; in [4], 17 nM; in the data set on MDA-MB-468 it was 150 nM.
As to `CC(=O)Nc1cccc(Oc2nc(NCC3CCOCC3)n3ncc(-c4ccc(C(=O)NC5CC5)c(C)c4)c3n2)c1`, in data set [1], the midpoint of inhibition, the IC50, lay at 8.4 nM. Moreover, the GI50 in the data set on MDA-MB-231 is 1600 nM; in [2], 1300 nM; in data set [3], 1200 nM.
Regarding `O=C(NC1CC1)c1ccc(-c2cnn3c(NCCN4CCOCC4)nc(Oc4ccccc4)nc23)cc1`, half-maximal inhibition in data set [1] (IC50) was put at 24 nM. Besides, the GI50 amounted to 960 nM with MDA-MB-231, 880 nM in data set [2] and 410 nM in data set [3].
In data set [1], `COCCNc1nc(Oc2ccccc2)nc2c(-c3ccc(C(=O)NC4CC4)cc3)cnn12` gave an IC50 of 14 nM.
`Cc1cc(-c2cnn3c(NCC4CCOCC4)nc(OC4CCCC4)nc23)ccc1C(=O)NC1CC1`: in data set [1], the IC50 was determined as 2.3 nM. Moreover, the GI50 in the data set on MDA-MB-231 worked out at 230 nM; in [2], 160 nM; in data set [3], 590 nM.
In the same order, the values of `Cc1cc(-c2cnn3c(NCC4CCOCC4)nc(NC4CCCCC4)nc23)ccc1C(=O)NC1CC1` are 2.6 nM, 270 nM, 170 nM and 470 nM.
With `Cc1cc(-c2cnn3c(NCC4CCOCC4)nc(Oc4cccc(F)c4F)nc23)ccc1C(=O)NC1CC1`, the IC50 in data set [1] is 0.4 nM; on Cytochrome P450 3A4 it was more than 20000 nM. The GI50 was 12 nM in the data set with MDA-MB-231, 9 nM in data set [2] and 37 nM in [3]. Further, the half-life (as a rule, how long it takes for the measured level to halve) was 28 min in data set [5], 40 min in data set [6] and more than 60 min in data set [7]. Also, the Cmax (usually the maximum level reached in the sampled fluid or tissue) in data set [8] turned out to be 1600 ng/mL. Further, the AUC – broadly, concentration integrated over time – in data set [9] was 4000 ng·h/mL.
In the case of `O=C(NC1CC1)c1ccc(-c2cnn3c(NCC4CCOCC4)nc(Oc4ccccc4)nc23)cc1Cl`, half-maximal inhibition in data set [1] (IC50) required 1.7 nM. The GI50 was determined as 230 nM with MDA-MB-231, 160 nM in [2] and 400 nM in [3].
In the same order, the values of `O=C(NC1CC1)c1ccc(-c2cnn3c(NCC4CCOCC4)nc(NC4CCCC4)nc23)cc1` are 10 nM, 690 nM, 390 nM and 1700 nM.
In data set [1], `O=C(NC1CC1)c1ccc(-c2cnn3c(NCC4CCOCC4)nc(N4CCOCC4)nc23)cc1Cl` had an IC50 of 32 nM. In addition, the GI50 with MDA-MB-231 came to 450 nM; in [2] it was 440 nM; in data set [3], 70 nM.
As for `Cc1cc(-c2cnn3c(NCC4CCOCC4)nc(NC4CCCC4)nc23)ccc1C(=O)NC1CC1`, the GI50 with MDA-MB-231 amounted to 170 nM; in data set [2], 130 nM; in [3], 480 nM; in the data set on HT-29 it was 84 nM; in [4] it was 53 nM; with MDA-MB-468, 320 nM. This molecule came in with an IC50 against Cytochrome P450 3A4 of 19000 nM. In addition, the values for the half-life in data set [5], in [6] and in data set [7] were 14 min, 11 min and more than 60 min, respectively.
On to `O=C(NC1CC1)c1ccc(-c2cnn3c(NCC4CCOCC4)nc(Oc4ccccc4)nc23)cc1`, for which the IC50 in [1] was found to be 4.9 nM. In addition, the GI50 was 350 nM with MDA-MB-231, 200 nM in [2] and 910 nM in data set [3].
For `O=C(N[C@@H](c1ccccn1)C1CC1)c1ccc2[nH]nc(-c3ccc(N4C5CCC4CC(O)C5)cc3)c2c1` (stereo not given in full), the inhibition – broadly, how much of the control response was suppressed – in [10] came out at 50%.
For the molecule `Cc1cc(-c2cnn3c(NCC4CCOCC4)nc(Nc4ccccc4)nc23)ccc1C(=O)NC1CC1`, in data set [1], the IC50 was 11 nM. In addition, the values for the GI50 (in the data set with MDA-MB-231; in data set [2]; in data set [3]) were 1200 nM, 690 nM and 1700 nM, respectively.
For `CN(c1nc(NCC2CCOCC2)n2ncc(-c3ccc(C(=O)NC4CC4)c(F)c3)c2n1)C1CCCCC1`, 15 nM corresponded to half-maximal inhibition in data set [1] (IC50).
The molecule `Cc1cc(-c2cnn3c(NCC4CCOCC4)nc(NC4CCOCC4)nc23)ccc1C(=O)NC1CC1` came in with an IC50 in data set [1] of 9 nM. Further, the values for the GI50 (with MDA-MB-231; in [2]; in [3]) were 540 nM, 280 nM and 780 nM, respectively.
The molecule `CC(C)C(=O)Nc1ccc(-c2cnn3c(NCC4CCOCC4)nc(OC4CCCC4)nc23)cc1` showed a concentration for half-maximal inhibition (IC50) in data set [1] of 1700 nM.
Same read-out and setting: the figure for `Cc1cc(-c2cnn3c(NCC4CCOCC4)nc(NC4CCCC4)nc23)ccc1NC(=O)C1CC1` is 2000 nM.
Take `O=C(NC1CC1)c1ccc(-c2cnn3c(NCC4CCOCC4)nc(NC4CCCC4)nc23)cc1F`: 7 nM corresponded to half-maximal inhibition in [1] (IC50). Moreover, the results for the GI50 (with MDA-MB-231; in [2]; in [3]) were 1400 nM, 850 nM and 1700 nM, respectively.
Molecule `CC(C)NC(=O)c1ccc(-c2cnn3c(NCC4CCOCC4)nc(OC4CCCC4)nc23)cc1` came in with an IC50 in [1] of 230 nM.

B1: Dual specificity protein kinase TTK (Homo sapiens), P33981 (protein)
chain: T1 sequence (P33981 whole entry)
Turning to B1, the Km – broadly, the concentration of substrate that gives half-maximal velocity – in [11] was 17.4 µM; in data set [12] it was 39 µM; in data set [13], 63.4 µM.
